Data as given in ChEMBL document CHEMBL1146291, “Structure-activity delineation of quinones related to the biologically active Calothrixin B” (Bioorg Med Chem Lett, 2007).

How the values were obtained:
[1] = Cytotoxicity against CV1 cells by MTT assay; assay type: cell-based; details: Chlorocebus aethiops, CV-1
P388 = assay: Cytotoxicity against mouse P388 cells by MTT assay; assay type: functional, cell-based
HeLa = assay: Cytotoxicity against human HeLa cells by MTT assay; assay type: functional, cell-based

| SMILES | EC50 [1] | EC50 (P388) | EC50 (HeLa) |
| --- | --- | --- | --- |
| CC1=CC(=O)c2[nH]c3ccccc3c2C1=O [MURRAYAQUINONE A] | 10 µM | 2.3 µM | 13 µM |
| O=C1c2ccccc2C(=O)c2c1[nH]c1ccccc21 [BENZOCARBAZOLEDIONE] | > 50 µM | > 50 µM | 1.8 µM |
| O=C1c2[nH]c3ccccc3c2C(=O)c2ccc3ccccc3c21 | > 50 µM | > 50 µM | 1.5 µM |
| O=C1C=CC(=O)c2c1[nH]c1ccccc21 | > 50 µM | > 50 µM | > 50 µM |
| CC1=CC(=O)c2c([nH]c3ccccc23)C1=O | 1.7 µM | 1 µM | 7 µM |
| O=C1c2[nH]c3ccccc3c2C(=O)c2cnc3ccccc3c21 [CALOTHRIXIN B] | 2.4 µM | 9 µM | 0.25 µM |
